Assay results from patent publication US20240032541A1, “HERBICIDAL COMPOUNDS” (SYNGENTA CROP PROTECTION AG, priority 2020, published 2024).

How the values were obtained:
Assay type in all cases: in vivo
Setaria faberi (SETFA) [1] = assay: Pre-emergence herbicide glasshouse test; conditions: pre-emergence (sprayed after one day cultivation), 250 g/ha, evaluated after 13 days
Description: (§1) Seeds of a variety of test species are sown in standard soil in pots Amaranthus retoflexus (AMARE), Echinochloa crus-galli (ECHCG), Setaria faberi (SETFA)). After cultivation for one day (pre-emergence) or after 8 days cultivation (post-emergence) under controlled conditions in a glasshouse (at 24/16° C., day/night; 14 hours light; 65% humidity), the plants are sprayed with an aqueous spray solution derived from the formulation of the technical active ingredient in acetone/water (50:50) solution containing 0.5% Tween 20 (polyoxyethelyene sorbitan monolaurate, CAS RN 9005-64-5). Compounds are applied at 250 g/ha unless otherwise stated. The test plants are then grown in a glasshouse under controlled conditions in a glasshouse (at 24/16° C., day/night; 14 hours light; 65% humidity) and watered twice daily. After 13 days for pre and post-emergence, the test is evaluated for the percentage damage caused to the plant. The biological activities are shown in the following table on a five-point scale (5=81-100%; 4=61-80%; 3=41-60%; 2=21-40%; 1=0-20%).

[2] = test system: Amaranthus retoflexus (AMARE); assay: Pre-emergence herbicide glasshouse test; conditions: pre-emergence (sprayed after one day cultivation), 250 g/ha, evaluated after 13 days
Description: as §1

[3] = test system: Echinochloa crus-galli (ECHCG); assay: Pre-emergence herbicide glasshouse test; conditions: pre-emergence (sprayed after one day cultivation), 250 g/ha, evaluated after 13 days
Description: as §1

Setaria faberi (SETFA) [4] = assay: Post-emergence herbicide glasshouse test; conditions: post-emergence (sprayed after 8 days cultivation), 250 g/ha, evaluated after 13 days
Description: as §1

[5] = test system: Amaranthus retoflexus (AMARE); assay: Post-emergence herbicide glasshouse test; conditions: post-emergence (sprayed after 8 days cultivation), 250 g/ha, evaluated after 13 days
Description: as §1

[6] = test system: Echinochloa crus-galli (ECHCG); assay: Post-emergence herbicide glasshouse test; conditions: post-emergence (sprayed after 8 days cultivation), 250 g/ha, evaluated after 13 days
Description: as §1

Structure (SMILES)	percentage damage caused to the plant, five-point scale, SETFA (Setaria faberi (SETFA) [1])	percentage damage caused to the plant, five-point scale, AMARE [2]	percentage damage caused to the plant, five-point scale, ECHCG [3]	percentage damage caused to the plant, five-point scale, SETFA (Setaria faberi (SETFA) [4])	percentage damage caused to the plant, five-point scale, AMARE [5]	percentage damage caused to the plant, five-point scale, ECHCG [6]
Clc1cnc(Oc2cccc3cccc(Oc4ncc(Cl)cn4)c23)nc1 [Compound 1.001, 5-CHLORO-2-[[8-(5-CHLOROPYRIMIDIN-2-YL)OXY-1-NAPHTHYL]OXY]PYRIMIDINE]	4 (4=61-80%)	3 (3=41-60%)	3 (3=41-60%)	4 (4=61-80%)	3 (3=41-60%)	4 (4=61-80%)
COc1cnc(Oc2cccc3nc(C(F)(F)F)nc(CCCC(F)(F)F)c23)nc1 [Compound 1.026]	4 (4=61-80%)	2 (2=21-40%)	4 (4=61-80%)	4 (4=61-80%)	4 (4=61-80%)	3 (3=41-60%)
FC(F)(F)CCCCc1nc(C(F)(F)F)nc2cccc(Oc3ncc(Cl)cn3)c12 [Compound 1.021]	5 (5=81-100%)	5 (5=81-100%)	5 (5=81-100%)	4 (4=61-80%)	5 (5=81-100%)	4 (4=61-80%)
FC(F)(F)CCCc1nccc2cccc(Oc3ncc(Cl)cn3)c12 [Compound 1.012, 8-(5-chloropyrimidin-2-yl)oxy-1-(4,4,4-trifluorobutyl)isoquinoline]	5 (5=81-100%)	4 (4=61-80%)	5 (5=81-100%)	4 (4=61-80%)	4 (4=61-80%)	4 (4=61-80%)
CCCCc1nc(C(F)(F)F)nc2cccc(Oc3ncc(Cl)cn3)c12 [Compound 1.005]	5 (5=81-100%)	5 (5=81-100%)	5 (5=81-100%)	5 (5=81-100%)	5 (5=81-100%)	5 (5=81-100%)
FC(F)(F)CCCc1nc(Br)nc2cccc(Oc3ncc(Cl)cn3)c12 [Compound 1.029]	4 (4=61-80%)	1 (1=0-20%)	1 (1=0-20%)	2 (2=21-40%)	4 (4=61-80%)	1 (1=0-20%)
Cc1nc(OCCC(F)(F)F)c2c(Oc3ncc(Cl)cn3)cccc2n1 [Compound 1.007]	3 (3=41-60%)	2 (2=21-40%)	1 (1=0-20%)	1 (1=0-20%)	3 (3=41-60%)	1 (1=0-20%)
FC(F)(F)CCc1nc(C(F)(F)F)nc2cccc(Oc3ncc(Cl)cn3)c12 [Compound 1.022]	5 (5=81-100%)	5 (5=81-100%)	5 (5=81-100%)	4 (4=61-80%)	4 (4=61-80%)	4 (4=61-80%)
FC(F)(F)CCCc1cc(C(F)(F)F)nc2cccc(Oc3ncc(Cl)cn3)c12 [Compound 1.015, 5-(5-chloropyrimidin-2-yl)oxy-4-(4,4,4-trifluorobutyl)-2-(trifluoromethyl)quinoline]	5 (5=81-100%)	5 (5=81-100%)	5 (5=81-100%)	4 (4=61-80%)	5 (5=81-100%)	4 (4=61-80%)
FC(F)(F)CCCc1cccc2cccc(Oc3ncc(Cl)cn3)c12 [Compound 1.002, 5-chloro-2-[[8-(4,4,4-trifluorobutyl)-1-naphthyl]oxy]pyrimidine]	1 (1=0-20%)	1 (1=0-20%)	1 (1=0-20%)	3 (3=41-60%)	3 (3=41-60%)	2 (2=21-40%)
Cc1ccc(Oc2ncc(Cl)cn2)c2c(CCCC(F)(F)F)nc(C(F)(F)F)nc12 [Compound 1.046, 5-(5-chloropyrimidin-2-yl)oxy-8-methyl-4-(4,4,4-trifluorobutyl)-2-(trifluoromethyl)quinazoline]	3 (3=41-60%)	2 (2=21-40%)	2 (2=21-40%)	2 (2=21-40%)	4 (4=61-80%)	3 (3=41-60%)
Fc1cnc(Oc2cccc3nc(C(F)(F)F)nc(CCCC(F)(F)F)c23)nc1 [Compound 1.011]	5 (5=81-100%)	5 (5=81-100%)	5 (5=81-100%)	5 (5=81-100%)	5 (5=81-100%)	5 (5=81-100%)
Cc1nc2cccc(Oc3ncc(Cl)cn3)c2c(CCCC(F)(F)F)c1C#N [Compound 1.043, 5-(5-chloropyrimidin-2-yl) oxy-2-methyl-4-(4,4,4-trifluorobutyl) quinoline-3-carbonitrile]	2 (2=21-40%)	0	1 (1=0-20%)	2 (2=21-40%)	2 (2=21-40%)	1 (1=0-20%)
